This data set has as its system CCRIS mutagenicity, Ames/micronucleus/aberration tests. As to the kind of experiment: CCRIS mutagenicity studies.
[1] abbreviates: Test System: AMES SALMONELLA TYPHIMURIUM, Strain/Indicator: TA97, Metabolic Activation: NONE, Method: PREINCUBATION
[2] abbreviates: Test System: AMES SALMONELLA TYPHIMURIUM, Strain/Indicator: TA98, Metabolic Activation: NONE, Method: PREINCUBATION
[3] abbreviates: Test System: AMES SALMONELLA TYPHIMURIUM, Strain/Indicator: TA98, Metabolic Activation: NONE, Method: STANDARD PLATE.
[4] abbreviates: Test System: AMES SALMONELLA TYPHIMURIUM, Strain/Indicator: TA100, Metabolic Activation: NONE, Method: PREINCUBATION
[5] abbreviates: Test System: AMES SALMONELLA TYPHIMURIUM, Strain/Indicator: TA100, Metabolic Activation: NONE, Method: STANDARD PLATE.
[6] abbreviates: Test System: AMES SALMONELLA TYPHIMURIUM, Strain/Indicator: TA100, Metabolic Activation: RAT, LIVER, S-9, AROCLOR 1254 (10 OR 30%), Method: PREINCUBATION
[7] abbreviates: Test System: AMES SALMONELLA TYPHIMURIUM, Strain/Indicator: TA1535, Metabolic Activation: HAMSTER, LIVER, S-9, AROCLOR 1254 (10 OR 30%), Method: PREINCUBATION
The mark [8] stands for this setting: Test System: AMES SALMONELLA TYPHIMURIUM, Strain/Indicator: TA1535, Metabolic Activation: NONE, Method: PREINCUBATION

The structures appear in SMILES notation. The source made the active and inactive calls. The rule behind the calls is not given here.

In the case of `Clc1cccc2ccccc12`, the mutagenic call is “inactive; negative” (Test System: AMES SALMONELLA TYPHIMURIUM, Strain/Indicator: TA97, Metabolic Activation: HAMSTER, LIVER, S-9, AROCLOR 1254 (10%), Method: PREINCUBATION); “active; positive” (Test System: AMES SALMONELLA TYPHIMURIUM, Strain/Indicator: TA97, Metabolic Activation: HAMSTER, LIVER, S-9, AROCLOR 1254 (30%), Method: PREINCUBATION); “inactive; negative” under setting [1]; “inactive; negative” (Test System: AMES SALMONELLA TYPHIMURIUM, Strain/Indicator: TA97, Metabolic Activation: RAT, LIVER, S-9, AROCLOR 1254 (30%), Method: PREINCUBATION); “inactive; negative” (Test System: AMES SALMONELLA TYPHIMURIUM, Strain/Indicator: TA98, Metabolic Activation: HAMSTER, LIVER, S-9, AROCLOR 1254 (30%), Method: PREINCUBATION); “inactive; negative” under setting [2]. Also, the mutagenic call under setting [3] is “inactive; negative”; the mutagenic call (Test System: AMES SALMONELLA TYPHIMURIUM, Strain/Indicator: TA98, Metabolic Activation: RAT, LIVER, S-9, AROCLOR 1254 (30%), Method: PREINCUBATION) is “inactive; negative”; the mutagenic call (Test System: AMES SALMONELLA TYPHIMURIUM, Strain/Indicator: TA98, Metabolic Activation: RAT, LIVER, S-9, AROCLOR 1254, Method: STANDARD PLATE) was “inactive; negative”; the mutagenic call (Test System: AMES SALMONELLA TYPHIMURIUM, Strain/Indicator: TA100, Metabolic Activation: HAMSTER, LIVER, S-9, AROCLOR 1254 (10%), Method: PREINCUBATION) is “inactive; negative”; the mutagenic call (Test System: AMES SALMONELLA TYPHIMURIUM, Strain/Indicator: TA100, Metabolic Activation: HAMSTER, LIVER, S-9, AROCLOR 1254 (30%), Method: PREINCUBATION) is “active; positive”; the mutagenic call under setting [4] is “inactive; negative”. The mutagenic call runs as follows: under setting [5], “inactive; negative”; under setting [6], “inactive; negative”; (Test System: AMES SALMONELLA TYPHIMURIUM, Strain/Indicator: TA100, Metabolic Activation: RAT, LIVER, S-9, AROCLOR 1254, Method: STANDARD PLATE) “inactive; negative”; under setting [7], “inactive; negative”; under setting [8], “inactive; negative”; (Test System: AMES SALMONELLA TYPHIMURIUM, Strain/Indicator: TA1535, Metabolic Activation: RAT, LIVER, S-9, AROCLOR 1254 (30%), Method: PREINCUBATION) “inactive; negative”.

Regarding `COC(=O)[C@H]1[C@H]2C[C@@H]3c4[nH]c5cc(OC)ccc5c4CCN3C[C@H]2C[C@@H](OC(=O)/C=C/c2cc(OC)c(OC)c(OC)c2)[C@@H]1OC`, the mutagenic call (Test System: AMES SALMONELLA TYPHIMURIUM, Strain/Indicator: TA97, Metabolic Activation: HAMSTER, LIVER, S-9, AROCLOR 1254 (10 OR 30%), Method: PREINCUBATION) is “inactive; negative”; the mutagenic call under setting [1] was “inactive; negative”; the mutagenic call (Test System: AMES SALMONELLA TYPHIMURIUM, Strain/Indicator: TA97, Metabolic Activation: RAT, LIVER, S-9, AROCLOR 1254 (10 OR 30%), Method: PREINCUBATION) was “inactive; negative”; the mutagenic call (Test System: AMES SALMONELLA TYPHIMURIUM, Strain/Indicator: TA98, Metabolic Activation: HAMSTER, LIVER, S-9, AROCLOR 1254 (10 OR 30%), Method: PREINCUBATION) was “inactive; negative”; the mutagenic call under setting [2] is “inactive; negative”; the mutagenic call (Test System: AMES SALMONELLA TYPHIMURIUM, Strain/Indicator: TA98, Metabolic Activation: RAT, LIVER, S-9, AROCLOR 1254 (10 OR 30%), Method: PREINCUBATION) was “inactive; negative”. Moreover, the mutagenic call is “inactive; negative” (Test System: AMES SALMONELLA TYPHIMURIUM, Strain/Indicator: TA100, Metabolic Activation: HAMSTER, LIVER, S-9, AROCLOR 1254 (10 OR 30%), Method: PREINCUBATION); “inactive; negative” under setting [4]; “inactive; negative” under setting [6]; “inactive; negative” under setting [7]; “inactive; negative” under setting [8]; “inactive; negative” (Test System: AMES SALMONELLA TYPHIMURIUM, Strain/Indicator: TA1535, Metabolic Activation: RAT, LIVER, S-9, AROCLOR 1254 (10 OR 30%), Method: PREINCUBATION). Also, the mutagenic call reads like this: (Test System: AMES SALMONELLA TYPHIMURIUM, Strain/Indicator: TA1537, Metabolic Activation: HAMSTER, LIVER, S-9, AROCLOR 1254 (30%), Method: PREINCUBATION) “inactive; negative”; (Test System: AMES SALMONELLA TYPHIMURIUM, Strain/Indicator: TA1537, Metabolic Activation: NONE, Method: PREINCUBATION) “inactive; negative”; (Test System: AMES SALMONELLA TYPHIMURIUM, Strain/Indicator: TA1537, Metabolic Activation: RAT, LIVER, S-9, AROCLOR 1254 (30%), Method: PREINCUBATION) “inactive; negative”.

As to `Cc1ccccc1C1=C(C(=O)O)O1`, under setting [5], the mutagenic call was “inactive; negative”.

In the case of `CCCCN(CCC(C)=O)N=O`, the mutagenic call (Test System: AMES SALMONELLA TYPHIMURIUM, Strain/Indicator: TA1535, Metabolic Activation: RAT, LIVER, S-9, KC500 OR PHENOBARBITAL, Method: LIQUID SUSPENSION) is “active; positive”.

In the case of `Cc1ccc2cc3c(ccc4ccccc43)c3c2c1CC3=O`, the mutagenic call (Test System: CHINESE HAMSTER V-79, Strain/Indicator: V-79/8-AZAGUANINE, Metabolic Activation: RAT, LIVER, S-9, AROCLOR 1254, Method: STANDARD PLATE) was “active; positive”.

Regarding `Cc1ccc(/C=C/c2ccc([N+](=O)[O-])cc2)cc1`, the mutagenic call was “inactive; negative” (Test System: AMES SALMONELLA TYPHIMURIUM, Strain/Indicator: TA98 (NR), Metabolic Activation: NONE, Method: STANDARD PLATE); “active; positive” (Test System: AMES SALMONELLA TYPHIMURIUM, Strain/Indicator: TA98 (NR), Metabolic Activation: S-9, Method: STANDARD PLATE); “active; positive” under setting [3]; “active; positive” (Test System: AMES SALMONELLA TYPHIMURIUM, Strain/Indicator: TA98, Metabolic Activation: RAT, LIVER, S-9, AROCLOR, Method: STANDARD PLATE); “active; positive” (Test System: AMES SALMONELLA TYPHIMURIUM, Strain/Indicator: TA98, Metabolic Activation: S-9, Method: STANDARD PLATE); “inactive; negative” (Test System: AMES SALMONELLA TYPHIMURIUM, Strain/Indicator: TA100 (NR), Metabolic Activation: NONE, Method: STANDARD PLATE). Moreover, the mutagenic call (Test System: AMES SALMONELLA TYPHIMURIUM, Strain/Indicator: TA100 (NR), Metabolic Activation: S-9, Method: STANDARD PLATE) was “active; positive”; the mutagenic call under setting [5] is “active; positive”; the mutagenic call (Test System: AMES SALMONELLA TYPHIMURIUM, Strain/Indicator: TA100, Metabolic Activation: RAT, LIVER, S-9, AROCLOR, Method: STANDARD PLATE) was “active; positive”; the mutagenic call (Test System: AMES SALMONELLA TYPHIMURIUM, Strain/Indicator: TA100, Metabolic Activation: S-9, Method: STANDARD PLATE) is “active; positive”.
